Data published in patent US12227500B2, “Substituted pyrrolo[2,3-b]pyridines for suppressing toxic endoplasmic reticulum stress” (THE TRUSTEES OF COLUMBIA UNIVERSITY IN THE CITY OF NEW YORK, priority 2018, dated 2025).
“And” between values parts separate entries of the source, which are not always exact repeats. Equal entries are not always repeated. Where two headings read alike, the source gives them in different places.

What was measured:
[1] = tested on: human ES motor neurons; assay: Rescue of CPA toxicity by kinase inhibitors in dilution series (FIG. 3); conditions: for rescue of CPA toxicity: dilution series, FIG. 3
[2] = in vitro; conditions: CD-1, mouse, liver microsomes, pH 7.4
[3] = tested on: human ES motor neurons carrying the ALS-causing SOD1^A4V mutation; assay: cells; type: cell-based; conditions: for EC50 / Emax / viability at 1 µM: Homo sapiens, Neuron, 72 h; for EC50: read-out: EC50; for Emax: read-out: Emax (MN survival % untreated); for viability at 1 µM: CPA (33 μM) + compound (1 μM), read-out: Motor Neuron Survival, % untreated
Procedure: Next, survival assays were performed with all the analogs at once to generate a low-variability dataset. All compounds were evaluated at concentrations ranging from 0.1-3.0 μM (five-point dilution) in three technical replicates and two biological replicates.

[4] = tested on: human stem cell-derived motor neurons derived from a healthy patient; assay: CPA survival assay, wild-type human stem cell-derived motor neurons; conditions: 8-point dilution series
[5] = target: T1, MLK3/MAP3K11 (Homo sapiens, UniProt Q16584); assay: Radiolabeled ATP kinase assay (Reaction Biology Corp.), MLK3; type: biochemical; conditions: [Cmpd] 0.1 μM; 10 μM ATP
T1 construct: purchased Reaction Biology Corp
Procedure: (§1) Meanwhile, the same analogs were analyzed in a radiolabeled ATP assay (10 μM ATP; Reaction Biology Corp.) to compare the extent to which they could inhibit the activity of HGK, MLK1, or MLK3 in a cell-free environment (Table S3 and S4).

[6] = target: HGK/MAP4K4 (Homo sapiens, UniProt O95819); assay: Radiolabeled ATP kinase assay (Reaction Biology Corp.), HGK; type: biochemical; design: purchased Reaction Biology Corp; conditions: 10 μM ATP, read-out: % Enzyme Activity (relative to DMSO controls), HGK/MAP4K4, Data 1; for remaining activity at 0.025 µM: [Cmpd] 0.025 μM; for remaining activity at 0.1 µM: [Cmpd] 0.1 μM
Procedure: as §1

[7] = target: T2, MLK1/MAP3K9 (Homo sapiens, UniProt P80192); assay: Radiolabeled ATP kinase assay (Reaction Biology Corp.), MLK1; type: biochemical; conditions: [Cmpd] 0.1 μM, 10 μM ATP
T2 construct: purchased Reaction Biology Corp
Procedure: as §1

[8] = tested on: ESC-derived spinal motor neurons and interneurons; assay: Toxicity of ER stressors in mouse ESC-derived spinal neuron cultures; type: cell-based; conditions: co-cultures, increasing concentrations
Excerpt: One of the selective stressors that we identified was cyclopiazonic acid (CPA), a mycotoxin that reversibly blocks the sarcoendoplasmic reticulum-associated calcium ATPse (SERCA). SERCA is responsible for sequestering calcium from the cytoplasm into the endoplasmic reticulum (ER) (Goeger et al. 1988). SERCA inhibition lowers calcium concentration in the ER, leading to dysfunction of protein folding, activation of the unfolded protein response, ER stress, and apoptosis (Doutheil et al. 1997). […]. For all subsequent experiments, unless stated otherwise, motor neurons were treated with 7.5 μM CPA.
[…]. […] […].
For this analysis, we generated a new ESC line that expresses tdTomato in dI4 and dIL dorsal spinal inhibitory interneurons derived from Ptf1α-expressing progenitors (Hoang et al. 2017, unpublished data). We differentiated this line under conditions that promote the specification of dorsal interneuron identity. FACS-purified tdTomato-expressing interneurons were co-cultured with FACS-purified GFP-expressing spinal motor neurons (FIG. 16E and FIG. 16G).
To strengthen the link between the activation of ER stress and motor neuron degeneration, we extended our study to include two additional compounds that activate ER stress: thapsigargin, a drug that acts similarly to CPA by inhibiting SERCA pumps, but is irreversible (Lytton et al. 1991), and tunicamycin, a drug that triggers ER stress in a calcium-independent manner by inhibiting protein N-glycosylation in the ER (Oslowski et al. 2011). […] Thus, the motor neuron-toxic effects of CPA are likely related to its activation of ER stress pathways and not to its effects on calcium levels or other off-target effects (FIG. 16G).

[9] = Plasma and brain concentration 30 min after IP injection; type: in vivo, mouse; conditions: mice, ip dosing; for Kp at 30 min / concentration at 30 min: male, C57BL6/J, mouse; for Kp at 30 min: brain/plasma, read-out: B/P
Procedure: All studies were performed on 6-week old male C57BL6/J mice that were housed in the Columbia University Medical Center facility in a 12h light/dark cycle with access to food and water ad libitum. All animal procedures were approved by the Columbia University IACUC. […] Animals were weighed and injected once intraperitoneally (IP) at the indicated dose (10 or 20 mg/kg). After 30 min, animals were deeply anesthetized with 2.5% Avertin. Whole blood was collected by cardiac puncture in tubes containing 0.5M EDTA as an anticoagulant, and centrifuged for 10 min at 845 rcf at 4° to isolate plasma. Following cardiac puncture, animals were decapitated and brains were dissected and weighed. Brain samples were homogenized with a glass dounce homogenizer in 5 volumes of ddH2O. Brain and plasma samples were snap frozen in liquid nitrogen and stored at −80° C. before further processing.
The plasma samples were transferred to Eppendorf tubes (50 μL per sample) and diluted with acetonitrile (200 μL). The samples were sonicated for 1 minute followed by centrifugation at 16,000 rpm for 10 minutes. The supernatant was transferred to another Eppendorf tube and the solvent evaporated overnight. The samples were reconstituted in a mixture of 40 μL acetonitrile and 10 μL water transferred to a sample vial with insert, and analyzed by LC-MS.
The homogenized brain samples (250 μL) were transferred to Eppendorf tubes and diluted with acetonitrile (750 μL). The samples were sonicated for 1 minute followed by centrifugation at 16,000 rpm for 10 minutes. The supernatant (900 μL) was transferred to another Eppendorf tube and the solvent evaporated overnight. The samples were reconstituted in a mixture of 80 μL acetonitrile and 20 μL water, transferred to a sample vial with insert, and analyzed by LC-MS.
LC-MS analysis was performed on a platform comprising a Thermo Scientific Dionex Ultimate 3000 and a Bruker amaZon SL equipped with an electrospray ionization source controlled by Bruker Hystar 3.2. The compound concentration in each plasma sample was determined using a calibration curve. Chromatographic separation was performed by injecting 10 μL of the sample onto an Agilent Eclipse Plus C18 column (2.1×50 mm, 3.5 μm) maintained at 20° C. The flow rate was maintained at 400 μL/min. The initial flow conditions were 60% solvent A (water containing 0.1% acetic acid) and 40% solvent B (methanol containing 0.1% acetic acid). Solvent B was raised to 60% over 0.25 minutes and to 70% by 6.75 minutes.

[10] = read-out: % Enzyme Activity Remaining (relative to DMSO controls), MLK1/MAP3K9, Data 1
[11] = read-out: % Enzyme Activity Remaining (relative to DMSO controls), MLK1/MAP3K9, Data 2

T2 sequence (P80192 whole entry): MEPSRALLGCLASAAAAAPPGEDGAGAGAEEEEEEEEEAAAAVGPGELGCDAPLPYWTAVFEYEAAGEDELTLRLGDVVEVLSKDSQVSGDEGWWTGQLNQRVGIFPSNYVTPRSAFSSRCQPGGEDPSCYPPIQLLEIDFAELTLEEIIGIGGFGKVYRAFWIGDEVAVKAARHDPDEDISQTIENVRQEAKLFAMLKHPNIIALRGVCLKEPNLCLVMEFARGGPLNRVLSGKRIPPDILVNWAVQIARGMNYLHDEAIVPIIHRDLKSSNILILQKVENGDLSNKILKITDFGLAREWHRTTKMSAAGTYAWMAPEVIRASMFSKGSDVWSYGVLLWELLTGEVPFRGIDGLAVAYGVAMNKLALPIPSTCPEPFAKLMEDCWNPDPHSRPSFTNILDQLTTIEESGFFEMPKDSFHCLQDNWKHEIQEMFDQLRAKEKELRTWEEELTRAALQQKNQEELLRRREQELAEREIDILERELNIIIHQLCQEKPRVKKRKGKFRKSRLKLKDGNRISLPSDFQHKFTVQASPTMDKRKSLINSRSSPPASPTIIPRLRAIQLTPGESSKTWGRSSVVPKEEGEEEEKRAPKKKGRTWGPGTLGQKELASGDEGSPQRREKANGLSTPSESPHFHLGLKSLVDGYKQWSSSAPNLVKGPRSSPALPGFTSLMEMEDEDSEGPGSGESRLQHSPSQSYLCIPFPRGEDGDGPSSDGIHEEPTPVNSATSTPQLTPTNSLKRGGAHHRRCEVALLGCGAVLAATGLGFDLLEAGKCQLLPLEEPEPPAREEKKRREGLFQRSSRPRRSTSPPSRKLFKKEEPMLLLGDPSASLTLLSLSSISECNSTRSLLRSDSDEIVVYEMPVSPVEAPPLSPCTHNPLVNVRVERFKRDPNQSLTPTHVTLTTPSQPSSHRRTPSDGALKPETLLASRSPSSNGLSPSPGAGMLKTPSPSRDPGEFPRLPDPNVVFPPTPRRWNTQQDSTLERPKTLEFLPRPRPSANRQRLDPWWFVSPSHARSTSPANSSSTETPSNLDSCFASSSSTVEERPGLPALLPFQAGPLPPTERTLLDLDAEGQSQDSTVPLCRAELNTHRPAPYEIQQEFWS
Sequence of HGK/MAP4K4 (O95819 whole entry): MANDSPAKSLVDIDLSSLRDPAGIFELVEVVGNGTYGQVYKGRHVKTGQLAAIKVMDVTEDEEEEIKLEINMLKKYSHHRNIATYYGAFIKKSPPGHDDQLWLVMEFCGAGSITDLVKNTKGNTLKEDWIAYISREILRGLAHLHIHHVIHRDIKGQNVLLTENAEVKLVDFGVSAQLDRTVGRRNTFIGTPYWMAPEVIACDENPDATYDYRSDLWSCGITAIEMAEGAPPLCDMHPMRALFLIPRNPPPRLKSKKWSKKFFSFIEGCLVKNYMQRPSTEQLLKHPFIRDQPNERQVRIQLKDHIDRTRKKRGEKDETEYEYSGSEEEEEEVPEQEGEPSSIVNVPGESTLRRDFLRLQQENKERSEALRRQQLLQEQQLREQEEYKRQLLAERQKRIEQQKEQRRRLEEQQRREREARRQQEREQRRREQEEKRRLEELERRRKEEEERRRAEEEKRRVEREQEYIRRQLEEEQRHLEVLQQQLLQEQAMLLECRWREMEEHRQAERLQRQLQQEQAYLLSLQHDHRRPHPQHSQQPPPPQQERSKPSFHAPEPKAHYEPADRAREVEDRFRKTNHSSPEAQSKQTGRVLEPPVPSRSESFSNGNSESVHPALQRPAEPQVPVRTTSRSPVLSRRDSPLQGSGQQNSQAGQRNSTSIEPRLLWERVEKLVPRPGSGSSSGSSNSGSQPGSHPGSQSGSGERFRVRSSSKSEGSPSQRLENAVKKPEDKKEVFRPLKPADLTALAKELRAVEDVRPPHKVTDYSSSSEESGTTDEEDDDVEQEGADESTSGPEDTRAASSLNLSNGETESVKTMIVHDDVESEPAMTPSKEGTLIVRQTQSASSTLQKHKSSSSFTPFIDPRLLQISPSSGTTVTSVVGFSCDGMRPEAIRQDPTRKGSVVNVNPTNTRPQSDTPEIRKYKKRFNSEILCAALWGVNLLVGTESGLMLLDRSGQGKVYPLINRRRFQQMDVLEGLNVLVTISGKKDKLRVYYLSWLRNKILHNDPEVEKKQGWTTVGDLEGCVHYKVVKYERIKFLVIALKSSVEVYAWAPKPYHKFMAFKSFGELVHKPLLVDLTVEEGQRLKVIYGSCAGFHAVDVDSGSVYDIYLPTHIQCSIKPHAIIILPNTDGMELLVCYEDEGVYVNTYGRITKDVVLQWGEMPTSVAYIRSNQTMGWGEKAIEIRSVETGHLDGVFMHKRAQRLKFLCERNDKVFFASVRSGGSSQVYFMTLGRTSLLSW
T1 sequence (Q16584 whole entry): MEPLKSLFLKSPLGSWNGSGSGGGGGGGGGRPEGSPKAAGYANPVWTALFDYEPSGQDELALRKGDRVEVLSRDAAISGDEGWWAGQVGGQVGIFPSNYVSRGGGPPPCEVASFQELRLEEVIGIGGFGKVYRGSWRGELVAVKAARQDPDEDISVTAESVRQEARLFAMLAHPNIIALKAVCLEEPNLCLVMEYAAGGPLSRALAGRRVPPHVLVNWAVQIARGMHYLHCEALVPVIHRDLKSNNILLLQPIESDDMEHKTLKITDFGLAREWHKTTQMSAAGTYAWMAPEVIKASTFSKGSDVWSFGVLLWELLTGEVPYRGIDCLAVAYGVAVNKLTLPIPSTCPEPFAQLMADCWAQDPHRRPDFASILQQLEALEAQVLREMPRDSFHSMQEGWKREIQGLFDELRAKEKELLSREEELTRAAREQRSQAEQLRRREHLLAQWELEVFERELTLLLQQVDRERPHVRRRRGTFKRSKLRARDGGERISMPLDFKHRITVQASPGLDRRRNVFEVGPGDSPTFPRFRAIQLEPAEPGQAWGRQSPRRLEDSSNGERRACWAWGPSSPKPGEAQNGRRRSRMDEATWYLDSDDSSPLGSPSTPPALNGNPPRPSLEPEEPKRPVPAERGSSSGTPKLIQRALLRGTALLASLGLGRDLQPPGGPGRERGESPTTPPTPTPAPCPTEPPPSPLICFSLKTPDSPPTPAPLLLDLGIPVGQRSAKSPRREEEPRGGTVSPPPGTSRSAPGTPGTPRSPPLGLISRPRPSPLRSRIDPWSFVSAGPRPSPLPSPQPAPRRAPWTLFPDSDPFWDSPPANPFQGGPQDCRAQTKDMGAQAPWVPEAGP

Cn1cc(/C=C2\C(=O)Nc3ccc(S(N)(=O)=O)cc32)c2ccccc21 [Syk inhibitor]
rescue of CPA toxicity [1]: dose-dependent rescue of CPA toxicity

CN1CC2CCC(C1)N2Cc1ccc(-c2cnc3[nH]cc(-c4cccc(Cl)c4)c3c2)cc1 [Compound 12f, 3-(3-Chlorophenyl)-5-(4-((3-methyl-3,8-diazabicyclo[3.2.1]octan-8-yl)methyl)phenyl)-1H-pyrrolo[2,3-b]pyridine]
half-life at 20 μM [2]: 158 min
concentration giving complete rescue from CPA ([3]; CPA 33 μM): 0.3 µM
EC50 ([3]; CPA 33 μM): 110 nM
Emax ([3]; CPA 33 μM): 116%

CCSCc1ccc2c(c1)c1c3c(c4c5cc(CSCC)ccc5n5c4c1n2[C@H]1C[C@](O)(C(=O)OC)[C@]5(C)O1)CNC3=O [CEP1347]
rescue of CPA toxicity [1]: dose-dependent rescue of CPA toxicity

CCC(=O)Nc1cccc(Oc2nc(Nc3ccc(N4CCN(C)CC4)cc3OC)ncc2Cl)c1 [WZ4003]
rescue of CPA toxicity [4]: unable to rescue CPA toxicity
concentration that potentiated CPA-induced neurodegeneration and was toxic without CPA [1]: ≥ 1000 nM
rescue of CPA toxicity [1]: unable to rescue CPA toxicity

CN1CCN(Cc2ccc(-c3cnc4[nH]cc(-c5cccc(F)c5)c4c3)cc2)CC1 [Compound 7y, 3-(3-Fluorophenyl)-5-(4-((4-methylpiperazin-1-yl)methyl)phenyl)-1H-pyrrolo[2,3-b]pyridine]
half-life at 20 μM [2]: > 30 min
% Enzyme Activity Remaining (relative to DMSO controls), MLK3/MAP3K11, Data 1 [5]: 40.75%
% Enzyme Activity Remaining (relative to DMSO controls), MLK3/MAP3K11, Data 2 [5]: 43.09%
EC50 ([3]; CPA 33 μM): 433 nM
viability at 1 µM [3]: 86.4%
Emax ([3]; CPA 33 μM): 104%
remaining activity at 0.025 µM [6]: 7.85%
remaining activity at 0.1 µM [6]: 1.53%
remaining activity at 0.1 µM [7, 10]: 57.1%
remaining activity at 0.1 µM [7, 11]: 58.1%

CN1CCN(Cc2ccc(-c3cnc4[nH]cc(-c5cccc6[nH]ncc56)c4c3)cc2)CC1 [Compound 7aa, 4-(5-(4-((4-Methylpiperazin-1-yl)methyl)phenyl)-1H-pyrrolo[2,3-b]pyridin-3-yl)-1H-indazole]
half-life at 20 μM [2]: 9 min
% Enzyme Activity Remaining (relative to DMSO controls), MLK3/MAP3K11, Data 1 [5]: 31.88%
% Enzyme Activity Remaining (relative to DMSO controls), MLK3/MAP3K11, Data 2 [5]: 31.78%
EC50 ([3]; CPA 33 μM): 208 nM
viability at 1 µM [3]: 112%
Emax ([3]; CPA 33 μM): 134%
remaining activity at 0.025 µM [6]: 2.75%
remaining activity at 0.1 µM [6]: -1.36%
remaining activity at 0.1 µM [7, 10]: 52.9%
remaining activity at 0.1 µM [7, 11]: 51.7%

C/C=C(/C)C(=O)O[C@H]1C(C)=C2[C@H]([C@@H]1OC(=O)CCCCCCC)[C@@](C)(OC(C)=O)C[C@H](OC(=O)CCC)[C@@]1(O)[C@H]2OC(=O)[C@@]1(C)O [thapsigargin]
sensitivity of spinal motor neurons vs dorsal interneurons [8]: selectively sensitive

O[C@@H]1CCN(Cc2ccc(-c3cnc4[nH]cc(-c5cccc(F)c5)c4c3)cc2)C1 [Compound 12i, (R)-1-(4-(3-(3-Fluorophenyl)-1H-pyrrolo[2,3-b]pyridin-5-yl)benzyl)pyrrolidin-3-ol]
EC50 ([3]; CPA 33 μM): 50 nM
Emax ([3]; CPA 33 μM): 115%
Kp at 30 min ([9]; 10 mg/kg): 3.7
Kp at 30 min ([9]; 20 mg/kg): 2.8
concentration at 30 min ([9]; 10 mg/kg, read-out: brain): 2240 ng/g and 5.78 µM
concentration at 30 min ([9]; 10 mg/kg, read-out: plasma): < 600 ng/mL and < 1.55 µM
concentration at 30 min ([9]; 20 mg/kg, read-out: brain): 9780 ng/g and 25.2 µM
concentration at 30 min ([9]; 20 mg/kg, read-out: plasma): 3490 ng/mL and 9 µM

CCN(CC)C(=O)c1ccc(Nc2nc(OCC3CCCCC3)c3[nH]cnc3n2)cc1 [NU6140]
rescue of CPA toxicity [1]: dose-dependent rescue of CPA toxicity

O[C@@H]1CCN(Cc2ccc(-c3cnc4[nH]cc(-c5cccc(Cl)c5)c4c3)cc2)C1 [Compound 12l, (R)-1-(4-(3-(3-Chlorophenyl)-1H-pyrrolo[2,3-b]pyridin-5-yl)benzyl)pyrrolidin-3-ol]
EC50 ([3]; CPA 33 μM): 90 nM
Emax ([3]; CPA 33 μM): 115%
Kp at 30 min ([9]; 10 mg/kg): 1.7
concentration at 30 min ([9]; 10 mg/kg, read-out: brain): < 1000 ng/g and > 2.48 µM
concentration at 30 min ([9]; 10 mg/kg, read-out: plasma): < 600 ng/mL and < 1.49 µM
toxicity at this concentration ([9]; 20 mg/kg): ^cCompound was toxic at this concentration

JAK3 inhibitor IV
rescue of CPA toxicity [1]: dose-dependent rescue of CPA toxicity

tunicamycin
sensitivity of spinal motor neurons vs dorsal interneurons [8]: selectively sensitive

CNC(=O)Nc1cccc(-c2c[nH]c3ncc(-c4ccc(CN5CCN(C)CC5)cc4)cc23)c1 [Compound 7ak, 1-Methyl-3-(3-(5-(4-((4-methylpiperazin-1-yl)methyl)phenyl)-1H-pyrrolo[2,3-b]pyridin-3-yl)phenyl)urea]
% Enzyme Activity Remaining (relative to DMSO controls), MLK3/MAP3K11, Data 1 [5]: 48.06%
% Enzyme Activity Remaining (relative to DMSO controls), MLK3/MAP3K11, Data 2 [5]: 48.02%
EC50 ([3]; CPA 33 μM): 650 nM
viability at 1 µM [3]: 78.5%
Emax ([3]; CPA 33 μM): 112%
remaining activity at 0.025 µM [6]: 41.7%
remaining activity at 0.1 µM [6]: 14.2%
remaining activity at 0.1 µM [7, 10]: 34.2%
remaining activity at 0.1 µM [7, 11]: 32.8%

CN1CCN(Cc2ccc(-c3cnc4[nH]cc(-c5ccc(CN6CCOCC6)s5)c4c3)cc2)CC1 [Compound 7t, 4-((5-(5-(4-((4-Methylpiperazin-1-yl)methyl)phenyl)-1H-pyrrolo[2,3-b]pyridin-3-yl)thiophen-2-yl)methyl)morpholine]
% Enzyme Activity Remaining (relative to DMSO controls), MLK3/MAP3K11, Data 1 [5]: 83.49%
% Enzyme Activity Remaining (relative to DMSO controls), MLK3/MAP3K11, Data 2 [5]: 78.30%
EC50 ([3]; CPA 33 μM): 1380 nM
viability at 1 µM [3]: 43.6%
Emax ([3]; CPA 33 μM): 77.3%
remaining activity at 0.025 µM [6]: 74.3%
remaining activity at 0.1 µM [6]: 33.4%
remaining activity at 0.1 µM [7, 10]: 82.1%
remaining activity at 0.1 µM [7, 11]: 80%
